{
  "source": "patent US20170056463A1",
  "about": "“COMPOSITIONS AND METHODS FOR TREATING DIABETES” (priority 2015, published 2017)",
  "origin": "cited, not measured here",
  "key": {"[1]": {"test_system": "HSV (herpes simplex virus)"}, "[2]": {"test_system": "phosphotyrosine phosphatase"}, "[3]": {"experiment": "not given", "remark": "listed apart in the source"}},
  "data": [
    {"smiles": "COc1ccc2cc3[n+](cc2c1OC)CCc1cc2c(cc1-3)OCO2", "note": "[berberine]", "values": [
      {"measurement": "levels of fasting blood sugar", "setting": "after oral supplementation with the herbal extract of berberine, patients with pre-diabetes and diabetes", "result": "normalize"},
      {"measurement": "lowering of blood glucose", "setting": "doses of about 1,000 mg daily, compared with metformin", "result": "as effectively as metformin"},
      {"measurement": "cholesterol ratios", "setting": "previous investigations", "result": "improved"},
      {"measurement": "hemoglobin A1c (HbA1c)", "setting": "previous investigations", "result": "significant reduction"},
      {"measurement": "growth of HSV", "setting": "[1]", "result": "inhibits growth"}
    ]},
    {"smiles": "[Cr]", "note": "[Chromium, chromium]", "values": [
      {"measurement": "phosphotyrosine phosphatase activity", "setting": "[2]", "result": "inhibit"}
    ]},
    {"smiles": "[Zn]", "note": "[zinc]", "values": [
      {"measurement": "blood glucose levels", "setting": "[3]; 2 hour post-prandial measurements in people treated with zinc", "result": "reduced"},
      {"measurement": "systolic and diastolic blood pressures", "setting": "[3]; after zinc supplementation", "result": "significant reduction"}
    ]}
  ]
}
